IC50 data for 30 compounds are collected here from patent US10472346B2, “Potent gamma-secretase modulators” (The General Hospital Coporation, priority 2014, dated 2019).

SMILES strings stand for the structures. pIC50: −log10 of the molar value.

What is called pIC50 is the negative decadic logarithm of the IC50, by convention in mol/L.

The test system of this test is Aβ42. Put plainly: Aβ42 IC50 assay (SHSYSY-APP cell-based screening, UCSD sandwich Aβ42 ELISA). An excerpt:
FIG. 8: Representative concentration response curves of Compound 1 using our primary and orthogonal medium throughput SHSYSY-APP cell-based screening assays (10). Compounds are first screened two times in triplicate in our UCSD sandwich Aβ42 ELISA on sequential days and the average of the two assays must be within 3-fold of each other before being entered into the CDD relational database. The UCSD sandwich ELISA assay can easily handle 20 compounds per week. Compounds with Aβ42 IC50 values <100 nM continue through the testing funnel. The Z′ score and the % CV for the UCSD Aβ42 sandwich ELISA assay are 0.8 and 4, respectively. For the Meso Scale triplex assay the Z′ scores are 0.7, 0.9 and 0.6 Aβ42, Aβ40 and Aβ38, respectively and the % CV's are 7, 2 and 1 for Aβ42, Aβ40 and Aβ38, respectively. Aβ total peptides are measured using a sandwich ELISA.
Tabular Results of A1142 Assays Conducted on Compounds of Examples 5-102. Assays are Aβ42 IC50 (nM).
A general note: An ELISA detects its analyte on a solid surface through an enzyme-linked reagent.
`COc1nc(-c2cc(C)c(NC(C)Cc3ccc(F)cc3)nn2)ccc1-n1cnc(C)c1` (racemic) [Example 54, (+/−)—N-(1-(4-fluorophenyl)propan-2-yl)-6-(6-methoxy-5-(4-methyl-1H-imidazol-1-yl)pyridin-2-yl)-4-methylpyridazin-3-amine] gave a pIC50 of 7.54.
With `COc1nc(-c2cc(C)c(NC(C)c3nc4ccccc4o3)nn2)ccc1-n1cnc(C)c1` (racemic) [Example 74, (+/−)—N-(1-(benzo[d]oxazol-2-yl)ethyl)-6-(6-methoxy-5-(4-methyl-1H-imidazol-1-yl)pyridin-2-yl)-4-methylpyridazin-3-amine] the figure was 7.38; with `CCc1cc(-c2ccc(-n3cnc(C)c3)c(OC)n2)nnc1N[C@@H](C)c1ccc(F)cc1` [Example 5, (S)-4-Ethyl-N-(1-(4-fluorophenyl)ethyl)-6-(6-methoxy-5-(4-methyl-1H-imidazol-1-yl)pyridin-2-yl)pyridazin-3-amine], 8.11.
With `CCc1cc(-c2ccc(-n3cnc(C)c3)c(OC)n2)nnc1N[C@@H](C)c1ccccc1` [Example 7, (S)-4-ethyl-6-(6-methoxy-5-(4-methyl-1H-imidazol-1-yl)pyridin-2-yl)-N-(1-phenylethyl)pyridazin-3-amine] the figure was 8.26; with `CCc1cc(-c2ccc(-n3cnc(C)c3)c(OC)n2)nnc1NCc1ccc(F)cc1` [Example 8, 4-ethyl-N-(4-fluorobenzyl)-6-(6-methoxy-5-(4-methyl-1H-imidazol-1-yl)pyridin-2-yl)pyridazin-3-amine], 7.48.
With `CCc1cc(-c2ccc(-n3cnc(C)c3)c(OC)n2)nnc1N[C@H](C)c1ccccc1` [Example 9, (R)-4-ethyl-6-(6-methoxy-5-(4-methyl-1H-imidazol-1-yl)pyridin-2-yl)-N-(1-phenylethyl)pyridazin-3-amine] the figure was 7.34; with `CCc1cc(-c2ccc(-n3cnc(C)c3)c(OC)n2)nnc1N[C@H](C)c1ccc(F)cc1` [Example 10, (R)-4-ethyl-N-(1-(4-fluorophenyl)ethyl)-6-(6-methoxy-5-(4-methyl-1H-imidazol-1-yl)pyridin-2-yl)pyridazin-3-amine], 7.32.
On to `COc1nc(-c2cc(C(C)C)c(N[C@@H](C)c3ccc(F)cc3)nn2)ccc1-n1cnc(C)c1` [Example 11, (S)—N-(1-(4-fluorophenyl)ethyl)-4-isopropyl-6-(6-methoxy-5-(4-methyl-1H-imidazol-1-yl)pyridin-2-yl)pyridazin-3-amine], for which the pIC50 was 8.12.
The value for `COc1nc(-c2cc(C(C)C)c(N[C@@H](C)c3ccccc3)nn2)ccc1-n1cnc(C)c1` [Example 14, (S)-4-isopropyl-6-(6-methoxy-5-(4-methyl-1H-imidazol-1-yl)pyridin-2-yl)-N-(1-phenylethyl)pyridazin-3-amine] was 8.14.
`COc1nc(-c2nnc(N[C@@H](C)c3ccc(F)cc3)c(C)c2C)ccc1-n1cnc(C)c1` [Example 15, (S)—N-(1-(4-Fluorophenyl)ethyl)-6-(6-methoxy-5-(4-methyl-1H-imidazol-1-yl)pyridin-2-yl)-4,5-dimethylpyridazin-3-amine] showed a pIC50 of 7.17.
`COc1nc(-c2nnc(N[C@@H](C)c3ccccc3)c(C)c2C)ccc1-n1cnc(C)c1` [Example 17, (S)-6-(6-methoxy-5-(4-methyl-1H-imidazol-1-yl)pyridin-2-yl)-4,5-dimethyl-N-(1-phenylethyl)pyridazin-3-amine] gave a pIC50 of 7.43.
The value for `COc1nc(-c2nnc(NCc3ccc(F)cc3)c(C)c2C)ccc1-n1cnc(C)c1` [Example 18, N-(4-fluorobenzyl)-6-(6-methoxy-5-(4-methyl-1H-imidazol-1-yl)pyridin-2-yl)-4,5-dimethylpyridazin-3-amine] was 7.09.
`COc1nc(-c2cc(C)c(N(C)[C@@H](C)c3ccc(F)cc3)nn2)ccc1-n1cnc(C)c1` [Example 19, (S)—N-(1-(4-fluorophenyl)ethyl)-6-(6-methoxy-5-(4-methyl-1H-imidazol-1-yl)pyridin-2-yl)-N,4-dimethylpyridazin-3-amine] had a pIC50 of 6.62.
With `CCN(c1nnc(-c2ccc(-n3cnc(C)c3)c(OC)n2)cc1C)[C@@H](C)c1ccc(F)cc1` [Example 20, (S)—N-ethyl-N-(1-(4-fluorophenyl)ethyl)-6-(6-methoxy-5-(4-methyl-1H-imidazol-1-yl)pyridin-2-yl)-4-methylpyridazin-3-amine] the figure was 6.88; with `CC[C@@H](c1ccc(F)cc1)N(C)c1nnc(-c2ccc(-n3cnc(C)c3)c(OC)n2)cc1C` [Example 21, (S)—N-(1-(4-fluorophenyl)propyl)-6-(6-methoxy-5-(4-methyl-1H-imidazol-1-yl)pyridin-2-yl)-N,4-dimethylpyridazin-3-amine], 7.21; with `COc1nc(-c2ccc(N[C@@H](C)c3ccccc3)nn2)ccc1-n1cnc(C)c1` [Example 22, (S)-6-(6-methoxy-5-(4-methyl-1H-imidazol-1-yl)pyridin-2-yl)-N-(1-phenylethyl)pyridazin-3-amine], 7.80.
The value for `COc1nc(-c2ccc(NC(C)(C)c3ccc(F)cc3)nn2)ccc1-n1cnc(C)c1` [Example 23, N-(2-(4-Fluorophenyl)propan-2-yl)-6-(6-methoxy-5-(4-methyl-1H-imidazol-1-yl)pyridin-2-yl)pyridazin-3-amine] was 7.66; that for `COc1nc(-c2nnc(N[C@@H](C)c3ccc(F)cc3)cc2C)ccc1-n1cnc(C)c1` [Example 27, (S)—N-(1-(4-fluorophenyl)ethyl)-6-(6-methoxy-5-(4-methyl-1H-imidazol-1-yl)pyridin-2-yl)-5-methylpyridazin-3-amine] was 7.68.
With `COc1nc(-c2nnc(N[C@@H](C)c3ccc(F)cc3)c3c2CCC3)ccc1-n1cnc(C)c1` [Example 29, (S)—N-(1-(4-Fluorophenyl)ethyl)-4-(6-methoxy-5-(4-methyl-1H-imidazol-1-yl)pyridin-2-yl)-6,7-dihydro-5H-cyclopenta[d]pyridazin-1-amine] the figure was 7.89; with `COc1nc(-c2cc(C)c(N[C@@H](C)c3ccc(Cl)cc3)nn2)ccc1-n1cnc(C)c1` [Example 31, (S)—N-(1-(4-chlorophenyl)ethyl)-6-(6-methoxy-5-(4-methyl-1H-imidazol-1-yl)pyridin-2-yl)-4-methylpyridazin-3-amine], 8.24.
As for `COc1nc(-c2cc(C)c(N[C@@H](C)c3cccc(Cl)c3)nn2)ccc1-n1cnc(C)c1` [Example 33, (S)—N-(1-(3-chlorophenyl)ethyl)-6-(6-methoxy-5-(4-methyl-1H-imidazol-1-yl)pyridin-2-yl)-4-methylpyridazin-3-amine], the pIC50 is 8.17.
The value for `COc1nc(-c2cc(C)c(N[C@@H](C)c3ccccc3)nn2)ccc1-n1cnc(C)c1` [Example 35, (S)-6-(6-methoxy-5-(4-methyl-1H-imidazol-1-yl)pyridin-2-yl)-4-methyl-N-(1-phenylethyl)pyridazin-3-amine] was 7.92; that for `COc1ccc([C@H](C)Nc2nnc(-c3ccc(-n4cnc(C)c4)c(OC)n3)cc2C)cc1` [Example 36, (S)-6-(6-methoxy-5-(4-methyl-1H-imidazol-1-yl)pyridin-2-yl)-N-(1-(4-methoxyphenyl)ethyl)-4-methylpyridazin-3-amine] was 8.19.
The value for `COc1nc(-c2cc(C)c(N[C@@H](C)c3ccc(C(F)(F)F)cc3)nn2)ccc1-n1cnc(C)c1` [Example 37, (S)-6-(6-methoxy-5-(4-methyl-1H-imidazol-1-yl)pyridin-2-yl)-4-methyl-N-(1-(4-(trifluoromethyl)phenyl)ethyl)pyridazin-3-amine] was 8.20.
`COc1nc(-c2cc(C)c(N[C@@H](C)c3cccc(F)c3)nn2)ccc1-n1cnc(C)c1` [Example 38, (S)—N-(1-(3-fluorophenyl)ethyl)-6-(6-methoxy-5-(4-methyl-1H-imidazol-1-yl)pyridin-2-yl)-4-methylpyridazin-3-amine] gave a pIC50 of 8.15.
With `COc1nc(-c2cc(C)c(N[C@@H](C)c3ccc(F)c(F)c3)nn2)ccc1-n1cnc(C)c1` [Example 39, (S)—N-(1-(3,4-difluorophenyl)ethyl)-6-(6-methoxy-5-(4-methyl-1H-imidazol-1-yl)pyridin-2-yl)-4-methylpyridazin-3-amine] the figure was 8.19; with `CC[C@H](Nc1nnc(-c2ccc(-n3cnc(C)c3)c(OC)n2)cc1C)c1ccc(F)cc1` [Example 40, (S)—N-(1-(4-fluorophenyl)propyl)-6-(6-methoxy-5-(4-methyl-1H-imidazol-1-yl)pyridin-2-yl)-4-methylpyridazin-3-amine], 8.19.
The value for `COc1ccccc1[C@H](C)Nc1nnc(-c2ccc(-n3cnc(C)c3)c(OC)n2)cc1C` [Example 41, (S)-6-(6-methoxy-5-(4-methyl-1H-imidazol-1-yl)pyridin-2-yl)-N-(1-(2-methoxyphenyl)ethyl)-4-methylpyridazin-3-amine] was 7.76; that for `COc1nc(-c2cc(C)c(N[C@@H](C)c3ccc(C)cc3)nn2)ccc1-n1cnc(C)c1` [Example 42, (S)-6-(6-methoxy-5-(4-methyl-1H-imidazol-1-yl)pyridin-2-yl)-4-methyl-N-(1-(p-tolyl)ethyl)pyridazin-3-amine] was 8.12; that for `COc1nc(-c2cc(C)c(N[C@@H](C)c3cc(C(F)(F)F)cc(C(F)(F)F)c3)nn2)ccc1-n1cnc(C)c1` [Example 43, (S)—N-(1-(3,5-bis(trifluoromethyl)phenyl)ethyl)-6-(6-methoxy-5-(4-methyl-1H-imidazol-1-yl)pyridin-2-yl)-4-methylpyridazin-3-amine] was 8.12.
